Measured values: patent publication US11160750B2, “Composition and method for promoting hair growth” (ZivMas LLC, priority 2017, dated 2021)

Experiments:
[1] = system: human follicle derma papilla cells (HFDP); test: Cell proliferation assay in HFDP cells; assay type: cell-based; details: 0.5 ug/ml
Description: Adherent human cell lines were cultured according to standard mammalian tissue culture protocols and sterile technique. Human follicle derma papilla cells were cultured in human follicle dermal papilla cell growth medium, ready to use, low-serum. Keratinocyte cells (HaCaT) were cultured in high glucose Dulbecco's Modified Eagle Medium with 10% serum. Normal human […] cells such as HFF and BJ were culture in BIOAMF-2 complete medium (Biological industries). All media was supplemented with streptomycin ([…]), penicillin (100 U/ml) and Nystatin (12.5 U/ml). Cells were incubated in 5% CO2 at 37° C. All tissue culture were maintained in 25 cm^2 Nunc™ cell culture treated EasYFlask™ (Thermofisher scientific) and all the media and supplements were obtained from Biological Industries. Treatment were performed by plating cells in a Nunc™ 96 micro well delta surface plates (Thermofisher scientific) in a starting confluence of 0.5×10^4 cells/well. After 24 h of incubation the cells were treated with the ZM-26 composition.
Viability of the cells following treatment was determined using a commercially available MTT assay kit (ABCAM, ab146345) and performed according to manufacturer's instructions. […] The quantification was determined by measuring the optical density at 570 nm in an enzyme-linked immunosorbent assay (Spark, Tecan) reader. […]

DHT production = test: ELISA for DHT detection in male HFDP cells; assay type: cell-based, human; details: 5 μM testosterone
Description: Dihydrotestosterone (DHT) detection was performed using the Aviva Systems Biology dihydrotestosterone ELISA kit (OKEH02531). The technique is based on a competitive binding enzyme immunoassay. 96 well plate has been pre-coated with an antibiotinylated dihydrotestosterone antibody. 50 μl of HFDP cells control and treated samples were added to the wells along with 50 μl of 1× dihydrotestosterone-Biotin complex. After incubation at 37° C. for 60 min wells were washed 3 times with 1× Wash buffer and was added to each well 100 μl of Avidin-HRP conjugate solution. Another step of incubation at 37° C. for 45 min and washing with 1× wash buffer was performed. 90 μl of TMB subtract was added and to each well followed by incubation in dark, 37° C. for 15-30 minutes. Finally, 50 μl of a stop solution was added and the quantification was determined by measuring the optical density at 450 nm in an enzyme-linked immunosorbent assay (Spark, Tecan) reader.

Structure (SMILES) | cell viability after 48 h treatment [1] | DHT levels increase (DHT production)
Nc1cc(N2CCCCC2)nc(N)[n+]1[O-] [minoxidil] | caused cell death | –
C[C@]12CC[C@H]3[C@@H](CCC4=CC(=O)CC[C@@]43C)[C@@H]1CC[C@@H]2O [testosterone] | – | 4.4 fold
